compound,measurement,setting,value
CC#CCn1c(N2CCC[C@@H](N)C2)nc2c1c(=O)n(Cc1nc(C)c3ccccc3n1)c(=O)n2C,solubility (mole fraction),"in acetonitrile, 273.15 K",0.000425
same,solubility (mole fraction),"in acetonitrile, 278.15 K",0.000546
same,solubility (mole fraction),"in acetonitrile, 283.15 K",0.000675
same,solubility (mole fraction),"in acetonitrile, 288.15 K",0.000821
same,solubility (mole fraction),"in acetonitrile, 293.15 K",0.000974
same,solubility (mole fraction),"in acetonitrile, 298.15 K",0.00114
same,solubility (mole fraction),"in acetonitrile, 303.15 K",0.00132
same,solubility (mole fraction),"in acetonitrile, 308.15 K",0.00151
same,solubility (mole fraction),"in acetonitrile, 313.15 K",0.00172
same,solubility (mole fraction),"in ethanol, 273.15 K",0.000511
same,solubility (mole fraction),"in ethanol, 278.15 K",0.000637
same,solubility (mole fraction),"in ethanol, 283.15 K",0.000782
same,solubility (mole fraction),"in ethanol, 288.15 K",0.000947
same,solubility (mole fraction),"in ethanol, 293.15 K",0.00113
same,solubility (mole fraction),"in ethanol, 298.15 K",0.00137
same,solubility (mole fraction),"in ethanol, 303.15 K",0.00163
same,solubility (mole fraction),"in ethanol, 308.15 K",0.00194
same,solubility (mole fraction),"in ethanol, 313.15 K",0.00231
same,solubility (mole fraction),"in isopropanol, 273.15 K",0.000227
same,solubility (mole fraction),"in isopropanol, 278.15 K",0.000282
same,solubility (mole fraction),"in isopropanol, 283.15 K",0.000343
same,solubility (mole fraction),"in isopropanol, 288.15 K",0.000421
same,solubility (mole fraction),"in isopropanol, 293.15 K",0.000496
same,solubility (mole fraction),"in isopropanol, 298.15 K",0.000578
same,solubility (mole fraction),"in isopropanol, 303.15 K",0.000668
same,solubility (mole fraction),"in isopropanol, 308.15 K",0.000765
same,solubility (mole fraction),"in isopropanol, 313.15 K",0.000874
same,solubility (mole fraction),"in methanol, 273.15 K",0.00061
same,solubility (mole fraction),"in methanol, 278.15 K",0.000778
same,solubility (mole fraction),"in methanol, 283.15 K",0.00097
same,solubility (mole fraction),"in methanol, 288.15 K",0.00121
same,solubility (mole fraction),"in methanol, 293.15 K",0.00148
same,solubility (mole fraction),"in methanol, 298.15 K",0.00179
same,solubility (mole fraction),"in methanol, 303.15 K",0.00213
same,solubility (mole fraction),"in methanol, 308.15 K",0.00254
same,solubility (mole fraction),"in methanol, 313.15 K",0.00302
same,solubility (mole fraction),"in n-propanol, 273.15 K",0.000342
same,solubility (mole fraction),"in n-propanol, 278.15 K",0.000403
same,solubility (mole fraction),"in n-propanol, 283.15 K",0.000478
same,solubility (mole fraction),"in n-propanol, 288.15 K",0.000573
same,solubility (mole fraction),"in n-propanol, 293.15 K",0.00067
same,solubility (mole fraction),"in n-propanol, 298.15 K",0.000794
same,solubility (mole fraction),"in n-propanol, 303.15 K",0.00093
same,solubility (mole fraction),"in n-propanol, 308.15 K",0.00108
same,solubility (mole fraction),"in n-propanol, 313.15 K",0.00125

# Reference: BigSolDB 2.1
